Data set [1] concerns animals with scopolamine-induced memory impairment. Description: Morris Water Maze (MWM) test with scopolamine-induced memory impairment. Particulars: 30 mg/kg; daily; oral. Format: in vivo, Wistar rats. From the text: The first part of the study involved acute testing of cG-2-AllylP in the Morris Water Maze Memory (MWM) model. The MWM test is one of the most frequently used tests for assessing spatial memory in rats and is well recognized to accurately predict effects of disease and treatment on spatial memory generally. Therefore, the MWM test reflects effects of disease and treatment in human subjects. The standard procedure for MWM was followed. We used a circular swimming pool (80 cm depth×150 cm diameter) filled with opaque water, with the temperature maintained at 20° C. […] On days 1-4 of the experiment rats underwent memory acquisition trials with 6 trials (60 seconds each) in each day of testing (habituation phase). Latency to reach the platform was recorded and the daily reduction of average latency was used to measure the capability to learn where the hidden platform was. […] Experimental groups are detailed in the Table 4 below. On […], the probe MWM test was performed with the platform removed. There were 6 trials, each of maximum duration of 60s, at least 3 min rest between trials). […] Data was collected and analysed using Any-maze (v4.2) software. The data generated from behavioural tests was analysed using one-way ANOVA for determining the difference between the aged-groups. […]

Data set [2] has as its system pre-synaptic vesicles in the hippocampus. Description: Pre-synaptic vesicle count by transmission electron microscopy, middle aged rats. In kind it is in vivo, Wistar male rats. Particulars: CA1 and C3 subregions; 3 mg/kg/day x 7 days, s.c.; 21 days. The procedure: Four middle aged Wistar male rats (12 months) were divided into two groups: one vehicle-treated (n=2) and one cG-2-AllylP-treated (n=2). The rats were treated subcutaneously with 3 mg/kg/day of either saline or cG-2-AllylP for 7 days. On day 21 of the experiment the animals were sacrificed and the hippocampal tissue was harvested. Semi-thin sections of the tissue were fixed with OsO4 and embedded in resin. CA1 stratum oriens and CA3 sections were then sliced into ultra-thin, 80 nm slices and stained with uranyl acetate and lead citrate. Approximately 30 synapses per animal were analysed, synapse type classified and vesicle density was measured using AnalySIS®.
Transmission electron microscopy was used to count the total number of vesicles on the slides. The average density was calculated by measuring the total area (using AxioVision software) and using the number of vesicles. We followed the protocol in Yoshida et al. 97, Journal of Neurochemistry to calculate the vesicle density in a 200 nm×200 nm square apposing the post-synaptic density (PSD).

In data set [3] the test system is fmr1-knockout mice and wild-type mice. As to the kind of experiment: Elevated Plus Maze. In kind it is in vivo. From the text:
In another study, we used an “Elevated Plus Maze.” The Elevated Plus Maze test is one of the most widely used tests for measuring anxiety-like hyperactivity in mice. The test is based on the natural aversion of mice for open and elevated areas, as well as on their natural spontaneous exploratory behavior in novel environments. FIG. 23 depicts a photograph of a device used in this study. The apparatus consists of two open arms and two closed arms, crossed in the middle perpendicularly to each other, and a center area. The open arms are more exposed and therefore create more anxiety in the mice. Mice therefore spend more time in the closed arms and visit them more frequently. Mice were given access to all of the arms and were allowed to move freely between them. The number of entries into the open arms, the time spent in the open arms, and time spent in the center were used as indices of open space-induced anxiety.

Data set [4] concerns Fmr1-K02 mice and wildtype (WT) littermates. As to the kind of experiment: Inspection of animals for toxicity in Fragile X studies. Format: in vivo. Particulars: fmr1-knockout and wild-type mice. The procedure: Experiments were conducted in accordance with the United Kingdom Animals (Scientific Procedures) Act of 1986. Fmr1-K02 mice and wildtype (WT) littermates were generated on a C57BL/6J background and repeatedly backcrossed onto a C57BL/6J background for more than eight generations and send to Chile by the Jackson's laboratory. Mice were grouping housed (4-6 per cage) and all animals were provided with ad libitum food and water unless otherwise stated. Mice were maintained on a 12 h light/dark cycle (lights off 19:00 to 7:00) in a temperature-controlled environment (21±1° C.).
Animals were inspected for differences in coat appearance, whether any piloerection is present, eye condition (runny eyes or porphyria, ptosis) gait appearance, tremor, tail tone, reactivity to handling, etc.

The next data set concerns MeCP2 deficient mice. As to the kind of experiment: Survival of MeCP2 deficient mice (Rett Syndrome model). Particulars: for survival: MeCP2 deficient mice. How it is done: We treat hemizygous MeCP2(1lox) male mice with 20 mg/kg/day of cG-2-AllylP or saline, (0.01% BSA, n=15 per group in survival experiment and n=20 in the LTP experiment). The treatments are administered intraperitoneally from 4 weeks after birth. For the survival experiments the treatment is maintained through the course of the experiment. For the LTP experiment the mice are treated until week 9 when they are used for slice preparation.
MeCP2 deficient mutant mice develop RTT symptoms at about 4-6 weeks of age and […] (Chen et al., 2001. Nat Genet 27: 327-331). We compare the survival of the wild type controls and the MeCP2 deficient animals in vehicle- and cG-2-AllylP-treated groups. Survival is measured weekly from start of treatment (4 weeks) and used to produce Kaplan-Meier survival curves to show the proportion of mice that survive (y axis) at each weekly interval (x axis).
For the survival measurements, the nocturnal activity analysis and the immunoblot analysis, cG-2-AllylP supplied by Neuren Pharmaceuticals Limited is administered daily via intra-peritoneal injections (20 mg/kg, vehicle=saline, 0.01% BSA). The treatment starts at PI 5 and is maintained throughout the course of the experiments. For intracellular physiology experiments, the mice are injected daily with cG-2-AllylP (20 mg/kg body weight, vehicle=saline, 0.01% BSA) for 2 weeks, from P15 to P28-P32 when they are used for acute slice preparation. For optical imaging experiments, mice are injected with cG-2-AllylP (20 mg/kg body weight, vehicle=saline, 0.01% BSA) daily from the day of the lid suture to the day of imaging.
Therefore, we administer cG-2-AllylP orally to MeCP2 deficient mice. Briefly, an aqueous solution or other composition containing a pharmaceutically effective amount of cG-2-AllylP (20 or 80 mg/kg per animal) is administered daily.

Data set [5] concerns fmr1-knockout mice and wild-type mice. Description: Marble burying. In kind it is in vivo. How it is done: Mice were placed in an enclosed environment with a bed of wood shavings. Ten (10) marbles were introduced into the environment, and the number of marbles buried was determined by visual observation (median±interquartile range (IQR)).

Turning to `C=CC[C@]12CCCN1C(=O)CNC2=O` [cG-2-AllylP, (8aS)-Allyl-hexahydropyrrolo[1,2-a]pyrazine-1,4-dione], the “cognitive impairment induced by scopolamine (MWM)” value in data set [1] is on record as “significantly reversed the cognitive impairment induced by scopolamine”. Besides, in data set [2], the “number of pre-synaptic vesicles” value is “increased”. Also, the “time spent in the closed arm” value in data set [3] (fmr1-knockout animals) is on record as “normalized the time spent in the closed arm”; in data set [3] (wild-type mice) it was “about the same amount of time in the closed arm”. In addition, the “time spent in the open arms” value in data set [3] (fmr1-knockout animals) is recorded as “normalized the time spend in the open arms”. Also, the “time spent in the center” value in data set [3] (fmr1-knockout mice, p<0.001) is recorded as “significantly less time than vehicle-treated fmr1-knockout animals”; in data set [3] (wild-type mice) it was “slightly less time in the center than did vehicle-treated wild-type animals”. In data set [4], the “toxicity (coat, piloerection, eyes, gait, tremor, tail tone, reactivity)” value is listed as “No instances of toxicity have been observed”. In addition, the life expectancy result in the data set on MeCP2 deficient mice (MeCP2-/y mice, 20 mg/kg daily intra-peritoneal from P15) is reported as “increase in life expectancy”. Besides, the survival result was “survive substantially longer than saline-treated mice” in the data set with MeCP2 deficient mice (20 mg/kg/day intraperitoneally from 4 weeks) and “survival is increased substantially” with MeCP2 deficient mice (oral, 20 or 80 mg/kg daily). In addition, in the data set with MeCP2 deficient mice (mecp2 mice, 20 mg/kg/day intraperitoneally), the safety concerns result is “No safety concerns are raised”. Moreover, the values for the marbles buried in data set [5] (fmr1-knockout animals) and in data set [5] (wild-type mice) were 80% and 100%, respectively. For the same molecule, the “number of marbles buried (median)” value in data set [5] (fmr1-knockout animals) was 8 of 10 marbles. For the same molecule, the “number of marbles buried” value in data set [5] (wild-type mice) is listed as 10 out of 10.

The record behind these values is US11197856B2, “Bicyclic compounds and methods for their use in treating autism” (priority 2013, dated 2021).
